# Where a SMILES comes first, the peptide text is derived from it. Bridges are numbered along the chain shown (N, C = ends). [ ]: non-standard residue; d: D form. The star is where a group is joined. Ileψ(thiazoline)Cys = CC[C@H](C)[C@H](N)C1=N[C@H](C(=O)*)CS1; dOrn = NCCC[C@@H](N)C(=O)O
# Legend:
# RAW 264.7 cells = assay: Cell viability, MTT assay; assay type: cell-based, mouse; conditions: 5–100 μg/mL, 24 h; three independent experiments in triplicate
# Method: Cell viability was assessed using the 3-(4,5-dimethylthiazol-2-yl)-2,5-diphenyltetrazolium bromide (MTT) assay as described previously by Choi et al. (2016). For the cell viability assay, RAW 264.7 cells were seeded into a 96-well flat bottom microplate at a density of 2 × 10^4 cells per well and incubated at 37°C for 1 h. […] After 24 h of incubation, the medium was removed and wash in PBS once followed by 100 μl of MTT (5 mg/ml in PBS) solution was added to each well, and the plate was incubated for another 1 h. Then 100 μl of DMSO (100%) was added to dissolve the formazan crystals. Absorbance values were then measured at 450 nm using a microplate reader (Victor3, PerkinElmer).
# [1] = tested on: Clostridium difficile KCTC2251; assay: Antimicrobial activity against anaerobic pathogens (mm); assay type: cell-based; conditions: 48 h, mean ± SD, n = 3
# [2] = tested on: Propionibacterium acnes KCTC5933; assay: as above; assay type: cell-based; conditions: 48 h, mean ± SD, n = 3
# VRE 2 = assay: microbe, parasite or virus in culture; assay type: cell-based, enterococci; conditions: 18 h
# Method: (§1) This activity in terms of minimal inhibitory concentration (MIC) was determined by dilution and disk diffusion methods as per the Clinical and Laboratory Standards Institute (CLSI) guidelines for antimicrobial susceptibility testing. The examination of bacteria was conducted after incubation for 18 h at 37°C following inoculation of various test microorganisms, including methicillin-resistant Staphylococcus aureus (MRSA), vancomycin-resistant S. aureus (VRSA), or vancomycin-resistant enterococci (VRE). Control antibiotics were bacitracin and vancomycin.
# VRE4 = assay: organism not typed; assay type: cell-based, enterococci; conditions: 18 h
# Method: as §1
# VRE89 = assay: organism not typed; assay type: cell-based, enterococci; conditions: 18 h
# Method: as §1
# VRE5 = assay: organism not typed; assay type: cell-based, enterococci; conditions: 18 h
# Method: as §1
# VRE6 = assay: organism not typed; assay type: cell-based, enterococci; conditions: 18 h
# Method: as §1
# VRE3 = assay: organism not typed; assay type: cell-based, enterococci; conditions: 18 h
# Method: as §1
# VRE82 = assay: organism not typed; assay type: cell-based, enterococci; conditions: 18 h
# Method: as §1
# MRSA S3 = assay: microbe, parasite or virus in culture; assay type: cell-based, Staphylococcus aureus
# Method: as §1
# MRSA 639E = assay: microbe, parasite or virus in culture; assay type: cell-based, Staphylococcus aureus; conditions: 18 h
# Method: as §1
# MRSA U4 = assay: microbe, parasite or virus in culture; assay type: cell-based, Staphylococcus aureus
# Method: as §1
# MRSA P3 = assay: microbe, parasite or virus in culture; assay type: cell-based, Staphylococcus aureus
# Method: as §1
# MRSA 4–5 = assay: microbe, parasite or virus in culture; assay type: cell-based, Staphylococcus aureus
# Method: as §1
# MSRA S1 = assay: microbe, parasite or virus in culture; assay type: cell-based, Staphylococcus aureus; conditions: 18 h
# Method: as §1
# MRSA 5–3 = assay: microbe, parasite or virus in culture; assay type: cell-based, Staphylococcus aureus
# Method: as §1
# [3] = tested on: Alcaligenes faecalis ATCC 1004; assay: microbe, parasite or virus in culture; assay type: cell-based
# Method: as §1
# [4] = tested on: Mycobacterium smegmatis ATCC 9341; assay: microbe, parasite or virus in culture; assay type: cell-based; conditions: ATCC 9341, 18 h
# Method: as §1
# [5] = tested on: Micrococcus luteus ATCC 9341; assay: microbe, parasite or virus in culture; assay type: cell-based
# Method: as §1
# [6] = tested on: Listeria monocytogenes KCTC3569; assay: microbe, parasite or virus in culture; assay type: cell-based; conditions: KCTC3569, 18 h
# Method: as §1
# [7] = tested on: Salmonella typhimurium KCTC 1925; assay: microbe, parasite or virus in culture; assay type: cell-based
# Method: as §1
# VRSA = assay: microbe, parasite or virus in culture; assay type: cell-based, S. aureus; conditions: 18 h
# Method: as §1
# [8] = tested on: Escherichia coli KCTC 1923; assay type: cell-based; conditions: KCTC 1923, 18 h
# Method: as §1
# [9] = tested on: Bacillus subtilis ATCC 6633; assay type: cell-based; conditions: ATCC 6633, 18 h
# Method: as §1
# [10] = tested on: Pseudomonas aeruginosa KCTC 1637; assay type: cell-based; conditions: KCTC 1637, 18 h
# Method: as §1
# [11] = tested on: Enterococcus faecalis ATCC 29212; assay type: cell-based; conditions: ATCC 29212, 18 h
# Method: as §1
# [12] = tested on: Staphylococcus aureus KCTC 1928; assay type: cell-based; conditions: KCTC 1928, 18 h
# Method: as §1
# Mycobacterium smegmatis = assay: microbe, parasite or virus in culture; assay type: cell-based; conditions: Mycolicibacterium smegmatis, ATCC9341, 18 h
# Method: as §1
# [13] = Staphylococcus aureus, MRSA, 18 h
structure (smiles),measurement,setting,value
CC[C@H](C)[C@H](N)C1=N[C@H](C(=O)N[C@@H](CC(C)C)C(=O)N[C@H](CCC(=O)O)C(=O)N[C@H](C(=O)N[C@H]2CCCCNC(=O)[C@H](CC(N)=O)NC(=O)[C@@H](CC(=O)O)NC(=O)[C@H](Cc3cnc[nH]3)NC(=O)[C@@H](Cc3ccccc3)NC(=O)[C@H]([C@@H](C)CC)NC(=O)[C@@H](CCCN)NC2=O)[C@@H](C)CC)CS1 [CSP32] ({Ileψ(thiazoline)Cys}-L[dE]IK[dOrn]I[dF]H[dD]N; lactam 4-C),Cytotoxicity toward RAW 264.7 cells (MTT),RAW 264.7 cells,did not exert cytotoxicity
CC[C@@]1([C@@H]2O[C@@H]([C@H]3O[C@@](O)(CO)[C@H](C)C[C@@H]3C)C[C@@H]2C)CC[C@H]([C@]2(C)CC[C@]3(C[C@H](O)[C@@H](C)[C@@H]([C@@H](C)[C@@H](OC)[C@H](C)C(=O)O)O3)O2)O1 [Monensin],"Antimicrobial activity, Clostridium difficile (mm)",[1]; concentration 0.125 mg/mL,13.17±0.29 mm
same,"Antimicrobial activity, Clostridium difficile (mm)",[1]; concentration 0.25 mg/mL,13.00±0.50 mm
same,"Antimicrobial activity, Clostridium difficile (mm)",[1]; concentration 0.5 mg/mL,15.17±0.29 mm
same,"Antimicrobial activity, Clostridium difficile (mm)",[1]; concentration 1 mg/mL,17.33±0.29 mm
same,"Antimicrobial activity, Propionibacterium acnes (mm)",[2]; concentration 0.125 mg/mL,13.00±0.50 mm
same,"Antimicrobial activity, Propionibacterium acnes (mm)",[2]; concentration 0.25 mg/mL,15.17±0.29 mm
same,"Antimicrobial activity, Propionibacterium acnes (mm)",[2]; concentration 0.5 mg/mL,17.33±0.58 mm
same,"Antimicrobial activity, Propionibacterium acnes (mm)",[2]; concentration 1 mg/mL,17.17±0.29 mm
CC[C@H](C)[C@H](N)C1=N[C@H](C(=O)N[C@@H](CC(C)C)C(=O)N[C@H](CCC(=O)O)C(=O)N[C@H](C(=O)N[C@H]2CCCCNC(=O)[C@H](CC(N)=O)NC(=O)[C@@H](CC(=O)O)NC(=O)[C@H](Cc3cnc[nH]3)NC(=O)[C@@H](Cc3ccccc3)NC(=O)[C@H]([C@@H](C)CC)NC(=O)[C@@H](CCCN)NC2=O)[C@@H](C)CC)CS1 [Bacitracin] ({Ileψ(thiazoline)Cys}-L[dE]IK[dOrn]I[dF]H[dD]N; lactam 4-C (inferred); N-terminus assumed),MIC,VRE 2,0.3125 µg/mL
same,MIC,VRE4,5 µg/mL
same,MIC,VRE89,40 µg/mL
same,MIC,VRE5,1.25 µg/mL
same,MIC,VRE6,>80 µg/mL
same,MIC,VRE3,20 µg/mL
same,MIC,VRE82,40 µg/mL
same,MIC,"MRSA S3; S3, 18 h",1.25 µg/mL
same,MIC,MRSA 639E; 639E,40 µg/mL
same,MIC,"MRSA U4; U4, 18 h",1.25 µg/mL
same,MIC,"MRSA P3; P3, 18 h",1.25 µg/mL
same,MIC,"MRSA 4–5; 4–5, 18 h",1.25 µg/mL
same,MIC,MSRA S1,1.25 µg/mL
same,MIC,"MRSA 5–3; 5–3, 18 h",1.25 µg/mL
same,MIC,"[3]; ATCC 1004, 18 h",>80 µg/mL
same,MIC,[4],>80 µg/mL
same,MIC,"[5]; ATCC 9341, 18 h",>80 µg/mL
same,MIC,[6],0.3125 µg/mL
same,MIC,"[7]; KCTC 1925, 18 h",>80 µg/mL
same,MIC,VRSA,>80 µg/mL
same,MIC,[8],>80 µg/mL
same,MIC,[9],40 µg/mL
same,MIC,[10],>80 µg/mL
same,MIC,[11],5 µg/mL
same,MIC,[12],40 µg/mL
CN[C@H](CC(C)C)C(=O)N[C@H]1C(=O)N[C@@H](CC(N)=O)C(=O)N[C@H]2C(=O)N[C@H]3C(=O)N[C@H](C(=O)N[C@H](C(=O)O)c4cc(O)cc(O)c4-c4cc3ccc4O)[C@H](O)c3ccc(c(Cl)c3)Oc3cc2cc(c3O[C@@H]2O[C@H](CO)[C@@H](O)[C@H](O)[C@H]2O[C@H]2C[C@](C)(N)[C@H](O)[C@H](C)O2)Oc2ccc(cc2Cl)[C@H]1O [Vancomycin],MIC,"VRE 2; Enterococcus, VRE",> 80 µg/mL
same,MIC,VRE4,> 80 µg/mL
same,MIC,VRE89,> 80 µg/mL
same,MIC,VRE5,> 80 µg/mL
same,MIC,VRE6,> 80 µg/mL
same,MIC,VRE3,> 80 µg/mL
same,MIC,VRE82,> 80 µg/mL
same,MIC,MRSA S3; [13],0.312 µg/mL
same,MIC,"MRSA 639E; Staphylococcus aureus, MRSA",0.312 µg/mL
same,MIC,MRSA U4; [13],0.312 µg/mL
same,MIC,MRSA P3; [13],0.625 µg/mL
same,MIC,MRSA 4–5; [13],0.312 µg/mL
same,MIC,MSRA S1; Staphylococcus aureus,0.625 µg/mL
same,MIC,MRSA 5–3; [13],0.312 µg/mL
same,MIC,"[3]; Alcaligenes faecalis, ATCC1004, 18 h",> 80 µg/mL
same,MIC,Mycobacterium smegmatis,0.312 µg/mL
same,MIC,"[5]; Micrococcus luteus, ATCC9341, 18 h",0.156 µg/mL
same,MIC,[6]; Listeria monocytogenes,0.156 µg/mL
same,MIC,"[7]; Salmonella enterica, 18 h",> 80 µg/mL
same,MIC,"VRSA; Staphylococcus aureus, VRSA",> 80 µg/mL

# Reference: article PMC5426640, “A novel multifunctional peptide oligomer of bacitracin with possible bioindustrial and therapeutic applications from a Korean food-source Bacillus strain” (PLoS ONE, 2017)
